Molecular target: T1, RPS6KA6 (RSK4) (Homo sapiens, UniProt Q9UK32)
T1 construct: purchased Thermo Fisher Scientific (Life Technologies) SelectScreen
Experiment: SelectScreen Z'LYTE
Format: biochemical
Method in brief: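 NU5455 was profiled across the SelectScreen Broad panel of kinase activity and binding assays. Z'LYTE reactions such as CSF1R ran at apparent Km ATP, while the Adapta CAMK1 assay used ATP listed as 10. Values are given as percent.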

T1 sequence (Q9UK32 whole entry): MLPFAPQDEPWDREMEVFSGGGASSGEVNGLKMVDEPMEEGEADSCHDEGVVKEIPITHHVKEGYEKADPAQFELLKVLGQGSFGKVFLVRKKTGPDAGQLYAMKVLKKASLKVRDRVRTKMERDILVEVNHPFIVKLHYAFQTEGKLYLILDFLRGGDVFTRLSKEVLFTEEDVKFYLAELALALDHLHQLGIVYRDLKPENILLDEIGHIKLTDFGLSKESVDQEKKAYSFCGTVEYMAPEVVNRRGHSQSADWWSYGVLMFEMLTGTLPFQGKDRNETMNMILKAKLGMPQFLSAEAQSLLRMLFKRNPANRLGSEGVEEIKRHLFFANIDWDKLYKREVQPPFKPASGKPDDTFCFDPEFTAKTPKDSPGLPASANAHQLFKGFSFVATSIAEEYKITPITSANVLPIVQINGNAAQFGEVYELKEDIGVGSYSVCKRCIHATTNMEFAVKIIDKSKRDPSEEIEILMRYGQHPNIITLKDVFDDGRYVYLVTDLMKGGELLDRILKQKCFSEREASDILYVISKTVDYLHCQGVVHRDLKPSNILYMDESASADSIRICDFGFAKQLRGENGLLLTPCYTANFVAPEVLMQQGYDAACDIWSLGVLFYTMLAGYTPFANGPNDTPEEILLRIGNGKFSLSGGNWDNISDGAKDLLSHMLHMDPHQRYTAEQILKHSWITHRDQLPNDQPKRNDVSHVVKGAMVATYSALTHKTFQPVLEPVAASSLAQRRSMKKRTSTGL

Molecule `CN(C(=O)CN1CCOCC1)c1ccc2sc3c(-c4cccc5c(=O)cc(N6CC7CCC(C6)O7)oc45)cccc3c2c1` [NU5455] has an inhibition at 1 µM of 3.8%.

From PMC6934184, “Selective DNA-PKcs inhibition extends the therapeutic index of localized radiotherapy and chemotherapy” (The Journal of Clinical Investigation, 2019)
